Measured values as given in patent US20100204161A1, “Substances and Pharmaceutical Compositions for the Inhibition of Glyoxalases and Their Use Against Bacteria” (BIOMAC PRIVATINSTITUT FUR MEDIZINISHE UND ZAHMEDIZ …, priority 2005, published 2010).
“Also recorded” adds a separate entry of the source.

How the values were obtained:
yeast glyoxalase I = biological target: T1, yeast glyoxalase I (Saccharomyces cerevisiae, UniProt P50107); assay: Enzymatic activity of yeast glyoxalase I (formation of S-D-lactoyl-glutathione, 240 nm); type: biochemical; settings: increasing concentrations (0-30 mM in Example 5); FIG. 1-3; listed as EP
T1 construct: purchased Sigma G-4252
T1 sequence (P50107 1-326): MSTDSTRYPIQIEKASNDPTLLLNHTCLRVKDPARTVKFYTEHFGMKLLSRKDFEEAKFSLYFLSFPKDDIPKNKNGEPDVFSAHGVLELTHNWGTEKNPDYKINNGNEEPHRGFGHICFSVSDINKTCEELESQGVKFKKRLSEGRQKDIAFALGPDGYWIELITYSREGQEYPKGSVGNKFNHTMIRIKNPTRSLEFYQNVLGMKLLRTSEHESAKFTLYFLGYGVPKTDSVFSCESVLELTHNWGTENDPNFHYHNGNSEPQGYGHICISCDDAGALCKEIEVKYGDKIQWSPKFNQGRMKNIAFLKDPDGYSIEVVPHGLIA
Experimental: Measuring glyoxalase I (E.C.4.4.1.5, lactoyl-glutathione lyase Sigma, G-4252) was performed according to the instructions of McLellan and Thornalley (1989). The principle is based on measuring the initial rate of formation of S-D-lactoyl-glutathione from methylglyoxal (Sigma, MO252, 40%) and reduced L-glutathione (Aldrich, G-4251, >99%). The formation of the product is observed using the extinction coefficient e=2.86 mM-1 cm-1 at 240 nm. The measurement was performed in 50 mM sodium phosphate buffer, pH 7.0. For that purpose 2 mM methylglyoxal and 2 mM reduced glutathione were incubated for 2 minutes at 30° C. for the formation of the hemithioacetal. Thereafter 20 μl of a 1 to 1000 dilution of the glyoxalase I (Sigma, G-4252) was added to 1 ml of the measuring reagent to start the reaction.
Glyoxalase activity (IU) corresponds to the amount of enzyme forming 1 μmol of S-D-lactoyl-glutathione/min.
Determination of glyoxalase I activity was performed according to the general protocol as described above. The influence of ethyl pyruvate on enzyme activity was investigated by addition of increasing concentrations of EP (Sigma; no. E4, 780-8; lot. S18972-513) to the measuring reagent.
Determination of glyoxalase I activity was performed according to the general protocol as described above. The influence of compounds of the general formula (I), (II), and (III) on the activity of the enzyme was investigated by addition of increasing concentrations of these compounds to the preparation. The IC50-values were calculated from inhibition curves of each compound.
Determination of glyoxalase I activity was performed according to the general protocol as described above. The influence of 2-oxopropanethioic acid S-ethyl ester on the activity of the enzyme was investigated by addition of increasing concentrations of SE to the preparation for the measurement.
Determination of glyoxalase I activity was performed according to the general protocol as described above. The influence of effectors on the enzymatic activity was investigated by addition of increasing concentrations (0-30 mM) of EP (Sigma; no. E4, 780-8; lot. S18972-513) (triangle), BP (prepared according to the instructions of patent JP 11080089; 98%) (circle) and BL (Fluka, 69819; lot. 443090/1 21503090) (squares) to the measuring reagent (FIG. 3).

yeast glyoxalase II = assay: Enzymatic activity of yeast glyoxalase II (cell free extract, DTNB, 412 nm); type: biochemical, Saccharomyces cerevisiae; settings: 0-20 mM; FIG. 4
Experimental: Protein concentration of the cell free extract was determined according to the Bradford method (Bradford, 1976).
The activity of the glyoxalase II (Hydroxyacyl glutathione hydrolase, E.C. 3.1.2.6.) was determined according to the instructions of Martins et al. (1999) in 0.1 M MES buffer, pH 6.5, 1.5 mM S-D-lactoyl-glutathione (L7140, Sigma-Aldrich Chemistry GmbH) and 0.75 mM DTNB (Sigma, D8130). After addition of suitable amounts of cell extract and an incubation period of 15 min at 25° C. the formation of glutathione was measured at 412 nm (ε=13.6 mM^−1 cm^−1). The activity of the glyoxalase II (IU) correlates with the amount of enzyme hydrolysing 1 μmol of S-D-lactoyl-glutathion/min.
The influence of ethyl pyruvate on the activity of the enzyme was investigated by adding increasing concentrations of EP (Sigma, No. E4, 780-8; Lot. S18972-513) (0-20 mM) to the measurement reagent.

[1] = test system: different microbial species: Candida spp., Escherichia coli, Klebsiella oxytoca, Pseudomonas aeruginosa, Enterococcus faecalis, Enterococcus faecium, MRSA …; assay: Agar dilution antimicrobial susceptibility test, aerobic conditions; settings: 12.5 mM to 40 mM in agar, 37° C., 20 hours, 21 strains incl. ESBL and MRSA, FIG. 8
Experimental: The agar dilution method was used for antimicrobial susceptibility test. A series of plates (petri dishes; Greiner, Cat No. 933161) were prepared with 20 ml agar medium (Iso-Sensitest-Agar Ca. No. CM474, OXOID, Germany) to which various concentrations of EP (12.5 mM to 40 mM) were added. Control agar plates were prepared without EP. The plates are then inoculated with a suitable-standardized suspension of the test microbial species (10^4 cfu) using an automated spotter (spots 1-21). The agar plates were incubated under aerobic conditions at 37° C. for 20 hours. At the respective positions of the spots growth (if permissive under the selected conditions) will result in the formation of cell discs. The evaluation of the test results is performed by inspecting the sizes of these discs. […]

`CCOC(=O)C(C)=O` [Ethyl pyruvate] was tested, and the “Influence on the enzymatic activity of yeast glyoxalase I” value (yeast glyoxalase I) was “inhibits the reaction of yeast glyoxalase I in a concentration dependent manner; also recorded: inhibit the activity of glyoxalase I in a concentration dependent manner”, the “Influence on the enzymatic activity of yeast glyoxalase II” value (yeast glyoxalase II) was “inhibits the reaction of yeast glyoxalase II in a concentration dependent manner” and the “Effect on growth of different microbial species” value [1] was “effectively inhibits the growth and proliferation of different microbial species”.
